Results from US7118895B2, “Process for producing aglycon by using diglycosidase and flavor-improved food containing the aglycon and converting agent to be used in the process” (Amano Enzyme Inc., priority 2000, dated 2006).

Tested on: Crude diglycosidase
Assay: Examination of pH in the conversion into isoflavone aglycons by diglycosidase using soybean materials
Format: biochemical, Penicillium multicolor IAM7153
Parameters: Decomposition efficiency of genistin family in soymilk / Decomposition efficiency of genistin family in defatted soybean / Decomposition efficiency of daidzin family in defatted soybean: concentration or dose not given beside the values
Summary of the method: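 Suspensions of 50 mg roasted soy flour, soymilk, defatted soybean or concentrated soy protein were brought to pH 2 to 11 with HCl or NaOH and reacted at 55° C with crude diglycosidase (enzyme solution at 1.88 AU/mL, same pH). Ethanol-stopped samples at 0, 1, 3 and 6 h were analysed by HPLC.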

Decomposition efficiency of genistin family in defatted soybean (pH2.6, heat treatment of enzyme: no, reaction time 1 h): 17.7% | Decomposition efficiency of genistin family in defatted soybean (pH2.6, heat treatment of enzyme: no, reaction time 3 h): 32.7% | Decomposition efficiency of genistin family in defatted soybean (pH2.6, heat treatment of enzyme: no, reaction time 6 h): 34.6% | Decomposition efficiency of genistin family in defatted soybean (pH3.4, heat treatment of enzyme: no, reaction time 1 h): 56.9% | Decomposition efficiency of genistin family in defatted soybean (pH3.4, heat treatment of enzyme: no, reaction time 3 h): 62.5% | Decomposition efficiency of genistin family in defatted soybean (pH3.4, heat treatment of enzyme: no, reaction time 6 h): 68.8% | Decomposition efficiency of genistin family in defatted soybean (pH3.4, heat treatment of enzyme: yes, reaction time 6 h): 14.1% | Decomposition efficiency of genistin family in defatted soybean (pH4.8, heat treatment of enzyme: no, reaction time 0 h): 14.5% | Decomposition efficiency of genistin family in defatted soybean (pH4.8, heat treatment of enzyme: no, reaction time 1 h): 56.1% | Decomposition efficiency of genistin family in defatted soybean (pH4.8, heat treatment of enzyme: no, reaction time 3 h): 61.9% | Decomposition efficiency of genistin family in defatted soybean (pH4.8, heat treatment of enzyme: no, reaction time 6 h): 68.5% | Decomposition efficiency of genistin family in defatted soybean (pH4.8, heat treatment of enzyme: yes, reaction time 6 h): 25.2% | Decomposition efficiency of genistin family in defatted soybean (pH5.4, heat treatment of enzyme: no, reaction time 0 h): 14.5% | Decomposition efficiency of genistin family in defatted soybean (pH5.4, heat treatment of enzyme: no, reaction time 1 h): 51.5% | Decomposition efficiency of genistin family in defatted soybean (pH5.4, heat treatment of enzyme: no, reaction time 3 h): 55.4% | Decomposition efficiency of genistin family in defatted soybean (pH5.4, heat treatment of enzyme: no, reaction time 6 h): 60.3% | Decomposition efficiency of genistin family in defatted soybean (pH5.4, heat treatment of enzyme: yes, reaction time 6 h): 48.0% | Decomposition efficiency of genistin family in defatted soybean (pH6.6, heat treatment of enzyme: no, reaction time 1 h): 49.3% | Decomposition efficiency of genistin family in defatted soybean (pH6.6, heat treatment of enzyme: no, reaction time 3 h): 51.4% | Decomposition efficiency of genistin family in defatted soybean (pH6.6, heat treatment of enzyme: no, reaction time 6 h): 53.7% | Decomposition efficiency of genistin family in defatted soybean (pH6.6, heat treatment of enzyme: yes, reaction time 6 h): 46.4% | Decomposition efficiency of genistin family in defatted soybean (pH7.8, heat treatment of enzyme: no, reaction time 1 h): 36.7% | Decomposition efficiency of genistin family in defatted soybean (pH7.8, heat treatment of enzyme: no, reaction time 3 h): 42.5% | Decomposition efficiency of genistin family in defatted soybean (pH7.8, heat treatment of enzyme: no, reaction time 6 h): 45.7% | Decomposition efficiency of genistin family in defatted soybean (pH7.8, heat treatment of enzyme: yes, reaction time 6 h): 22.0%
SMILES: O=c1c(-c2ccc(O)cc2)coc2cc(O)cc(O)c12 [genistein]
